Reference: the NIST ThermoML archive (doi:10.1016/j.fluid.2004.11.024)
Where “and” joins values, the source holds several entries; their conditions need not be identical. Identical values can stand only once. ± gives the expanded uncertainty stated by the source.

Details: Liquid, Transpiration method

SMILES | vapor or sublimation pressure (293.3 K) [kPa] | vapor or sublimation pressure (298.1 K) [kPa] | vapor or sublimation pressure (301.2 K) [kPa] | vapor or sublimation pressure (306.2 K) [kPa] | vapor or sublimation pressure (311.2 K) [kPa] | vapor or sublimation pressure (313.3 K) [kPa] | vapor or sublimation pressure (316.3 K) [kPa] | vapor or sublimation pressure (318.2 K) [kPa] | vapor or sublimation pressure (321.3 K) | vapor or sublimation pressure (323.2 K) | vapor or sublimation pressure (295.2 K) [kPa] | vapor or sublimation pressure (303.2 K) [kPa] | vapor or sublimation pressure (311.3 K) [kPa] | vapor or sublimation pressure (313.2 K) [kPa] | vapor or sublimation pressure (318.3 K) [kPa] | vapor or sublimation pressure (293.2 K) [kPa] | vapor or sublimation pressure (298.3 K) [kPa] | vapor or sublimation pressure (328.2 K) [kPa] | further results
CC(C)COc1ccccc1Br [1-bromo-2-isobutoxybenzene] | 0.00213 ± 0.00011 | 0.00325 ± 0.00017 | 0.00423 ± 0.00022 | 0.00634 ± 0.00033 | 0.00954 ± 0.0005 | 0.01119 ± 0.00059 | 0.01398 ± 0.00073 | 0.01628 ± 0.00085 | 0.02031 ± 0.001 kPa | 0.02325 ± 0.0012 kPa |  |  |  |  |  |  |  |  | vapor or sublimation pressure (295.3 K): 0.00252 ± 0.00013 kPa; vapor or sublimation pressure (303.3 K): 0.00511 ± 0.00027 kPa; vapor or sublimation pressure (308.3 K): 0.00753 ± 0.0004 kPa
CC(C)COc1cccc(Br)c1 [1-bromo-3-isobutoxybenzene] | 0.00194 ± 0.0001 | 0.00301 ± 0.00016 |  | 0.00607 ± 0.00032 |  |  |  |  | 0.01929 ± 0.001 kPa | 0.02231 ± 0.0012 kPa | 0.00232 ± 0.00012 | 0.00465 ± 0.00025 | 0.00909 ± 0.00048 | 0.0106 ± 0.00056 | 0.01567 ± 0.00082 |  |  |  | vapor or sublimation pressure (290.2 K): 0.00145 ± 8e-05 kPa; vapor or sublimation pressure (301.1 K): 0.00389 ± 0.0002 kPa; vapor or sublimation pressure (308.1 K): 0.00703 ± 0.00037 kPa; vapor or sublimation pressure (316.1 K): 0.01312 ± 0.00069 kPa
CC(C)COc1ccc(Br)cc1 [1-bromo-4-isobutoxybenzene] |  |  | 0.00304 ± 0.00016 | 0.0048 ± 0.00025 |  | 0.0081 ± 0.00043 |  |  | 0.01498 ± 0.00078 kPa | 0.01699 ± 0.0009 kPa |  | 0.00351 ± 0.00019 | 0.00687 ± 0.00036 |  | 0.01175 ± 0.00062 | 0.00151 ± 8e-05 | 0.00242 ± 0.00013 | 0.02634 ± 0.0014 | vapor or sublimation pressure (308.4 K): 0.00538 ± 0.00028 kPa; vapor or sublimation pressure (316.2 K): 0.0101 ± 0.00053 kPa; vapor or sublimation pressure (326.3 K): 0.0224 ± 0.0012 kPa; vapor or sublimation pressure (331.2 K): 0.03352 ± 0.0018 kPa; vapor or sublimation pressure (333.2 K): 0.0391 ± 0.002 kPa
Cc1ccc(OCC(C)C)c(Br)c1 [2-bromo-1-isobutoxy-4-methylbenzene] |  |  | 0.00132 ± 7e-05 | 0.00213 ± 0.00011 | 0.00322 ± 0.00017 |  | 0.00506 ± 0.00027 | 0.00591 ± 0.00031 | 0.00752 ± 0.0004 kPa and 0.00762 ± 0.0004 kPa | 0.00914 ± 0.00048 kPa and 0.00897 ± 0.00047 kPa and 0.00883 ± 0.00047 kPa | 0.00076 ± 4e-05 |  |  | 0.00385 ± 0.00021 |  | 0.0006 ± 3e-05 | 0.00103 ± 5e-05 | 0.01293 ± 0.00067 | vapor or sublimation pressure (300.2 K): 0.0012 ± 6e-05 kPa; vapor or sublimation pressure (303.1 K): 0.0016 ± 8e-05 kPa; vapor or sublimation pressure (303.8 K): 0.00167 ± 9e-05 kPa; vapor or sublimation pressure (306.1 K): 0.00208 ± 0.00011 kPa; vapor or sublimation pressure (308.2 K): 0.00261 ± 0.00014 kPa; vapor or sublimation pressure (309.1 K): 0.00271 ± 0.00014 kPa; vapor or sublimation pressure (311.1 K): 0.00328 ± 0.00017 kPa; vapor or sublimation pressure (318.7 K): 0.00622 ± 0.00033 kPa; vapor or sublimation pressure (321.2 K): 0.00746 ± 0.00039 kPa; vapor or sublimation pressure (326.2 K): 0.01113 ± 0.00058 kPa
